The results in this text go back to patent US6930185B2, “Melanin-concentrating hormone antagonist” (Takeda Chemical Industries, Ltd., priority 2000, dated 2005).

On to `O=C(Oc1ccc2cc(CN3CCCC3)ccc2c1)N1CCC(c2ccc(Cl)cc2)CC1`, for which the melting point (as a rule, the temperature of the solid-liquid transition) is 121 to 123 °C.
The figure for `COc1ccc(C2CCN(C(=O)Oc3ccc4cc(CN5CCCC5)ccc4c3)CC2)cc1` is 127 to 129 °C; for `Cc1ccc(C2CCN(C(=O)Oc3ccc4cc(CN5CCCC5)ccc4c3)CC2)cc1` it is 238 to 240 °C.
The figure for `O=C(Oc1ccc2cc(CN3CCCC3)ccc2c1)N1CCC(c2ccc(F)cc2)CC1` is 106 to 108 °C; for `Cl.O=C(Oc1ccc2cc(CN3CCCC3)ccc2c1)N1CCC(c2ccccc2)CC1` it is 213 to 215 °C; for `O=C(Nc1ccc2nc(CN3CCCCC3)ccc2c1)c1ccc(-c2ccc(F)cc2F)cc1` (hydrate or solvate) [Example 68, 2′,4′-Difluoro-N-[2-(1-piperidinylmethyl)-6-quinolinyl][1,1′-biphenyl]-4-carboxamide] it is 181 to 182 °C.
The same measure for `O=C(Nc1ccc2cc(CN3CCCC3)ccc2c1)c1ccc(-c2ccc(Cl)cc2)cc1` [Example 2, 4′-Chloro-N-[6-(1-pyrrolidinylmethyl)-2-naphthyl][1,1′-biphenyl]-4-carboxamide]: 214 to 217 °C; for `CN(C)Cc1ccc2cc(NC(=O)c3ccc(-c4ccc(Cl)cc4)cc3)ccc2n1` [Example 6, 4′-Chloro-N-[2-[(N,N-dimethylamino)methyl]-6-quinolinyl][1,1′-biphenyl]-4-carboxamide]: 219 to 221 °C; for `O=C(Nc1ccc2nc(CN3CCCC3)ccc2c1)c1ccc(-c2ccc(F)cc2)cc1` [Example 7, 4′-Fluoro-N-[2-(1-pyrrolidinylmethyl)-6-quinolinyl][1,1′-biphenyl]-4-carboxamide]: 190 to 193 °C.
`O=C(Nc1ccc2nc(CN3CCCC3)ccc2c1)c1ccc(-c2ccc(Cl)cc2)cc1` [Example 8, 4′-Chloro-N-[2-(1-pyrrolidinylmethyl)-6-quinolinyl][1,1′-biphenyl]-4-carboxamide]: the melting point fell in the range of 200 to 202 °C.
The figure for `O=C(Nc1ccc2nc(CN3CCCCC3)ccc2c1)c1ccc(-c2ccc(F)cc2)cc1` [Example 9, 4′-Fluoro-N-[2-(1-piperidinylmethyl)-6-quinolinyl][1,1′-biphenyl]-4-carboxamide] is 202 to 204 °C; for `O=C(Nc1ccc2nc(CN3CCCCC3)ccc2c1)c1ccc(-c2ccc(Cl)cc2)cc1` [Example 10, 4′-Chloro-N-[2-(1-piperidinylmethyl)-6-quinolinyl][1,1′-biphenyl]-4-carboxamide] it is 211 to 213 °C.
With `O=C(Nc1ccc2nc(CN3CCOCC3)ccc2c1)c1ccc(-c2ccc(Cl)cc2)cc1` [Example 11, 4′-Chloro-N-[2-(4-morpholinylmethyl)-6-quinolinyl][1,1′-biphenyl]-4-carboxamide], the melting point lay in the range of 236 to 238 °C.
The figure for `O=C(Nc1ccc2nc(CN3CCOCC3)ccc2c1)c1ccc(-c2ccccc2)cc1` [Example 12, N-[2-(4-Morpholinylmethyl)-6-quinolinyl][1,1′-biphenyl]-4-carboxamide] is 214 to 215 °C; for `O=C(Nc1ccc2nc(CN3CCOCC3)ccc2c1)c1ccc(-c2ccc(F)cc2)cc1` [Example 13, 4′-Fluoro-N-[2-(4-morpholinylmethyl)-6-quinolinyl][1,1′-biphenyl]-4-carboxamide] it is 211 to 212 °C.
In turn, `Cc1ccc(-c2ccc(C(=O)Nc3ccc4nc(CN5CCOCC5)ccc4c3)cn2)cc1` [Example 14, 6-(4-Methylphenyl)-N-[2-(4-morpholinylmethyl)-6-quinolinyl]nicotinamide] came in with a melting point of 214 to 216 °C.
In turn, `CN(C)Cc1ccc2cc(NC(=O)c3ccc(-c4ccccc4)cc3)ccc2n1` [Example 15, N-[2-[(Dimethylamino)methyl]-6-quinolinyl][1,1′-biphenyl]-4-carboxamide] yielded a melting point of 191 to 194 °C.
The same measure for `CN(C)Cc1ccc2cc(NC(=O)c3ccc(-c4ccc(F)cc4)cc3)ccc2n1` [Example 16, N-[2-[(Dimethylamino)methyl]-6-quinolinyl]-4′-fluoro[1,1′-biphenyl]-4-carboxamide]: 205 to 208 °C; for `Cc1ccc(-c2ccc(C(=O)Nc3ccc4nc(CN(C)C)ccc4c3)cn2)cc1` [Example 17, N-[2-[(Dimethylamino)methyl]-6-quinolinyl]-6-(4-methylphenyl)nicotinamide]: 220 to 222 °C.
The figure for `CC1CCN(c2ccc(C(=O)Nc3ccc4nc(CN5CCCC5)ccc4c3)cc2)CC1` [Example 21, 4-(4-Methyl-1-piperidinyl)-N-[2-(1-pyrrolidinylmethyl)-6-quinolinyl]benzamide] is 200 to 202 °C; for `O=C(Nc1ccc2nc(CN3CCCC3)ccc2c1)c1ccc(N2CCCCC2=O)cc1` [Example 22, 4-(2-Oxo-1-piperidinyl)-N-[2-(1-pyrrolidinylmethyl)-6-quinolinyl]benzamide] it is 210 to 212 °C.
The figure for `CN1CCN(Cc2ccc3cc(NC(=O)c4ccc(-c5ccc(Cl)cc5)cc4)ccc3n2)CC1` [Example 24, 4′-Chloro-N-[2-[(4-methyl-1-piperazinyl)methyl]-6-quinolinyl][1,1′-biphenyl]-4-carboxamide] is 215 °C (dec.); for `O=C(Nc1ccc2nc(CN3CCCC3)ccc2c1)N1CCC(c2ccc(F)cc2)CC1` [Example 38, 4-(4-Fluorophenyl)-N-[2-(1-pyrrolidinylmethyl)-6-quinolinyl]-1-piperidinecarboxamide] it is 206 to 207 °C.
On to `O=C(Nc1ccc2nc(CN3CCCC3)ccc2c1)N1CCC(c2ccccc2)CC1` [Example 39, 4-Phenyl-N-[2-(1-pyrrolidinylmethyl)-6-quinolinyl]-1-piperidinecarboxamide], for which the melting point fell in the range of 187 to 189 °C.
The same measure for `O=C(Nc1ccc2nc(CN3CCCC3)ccc2c1)N1CCC(c2ccc(Cl)cc2)CC1` [Example 40, 4-(4-Chlorophenyl)-N-[2-(1-pyrrolidinylmethyl)-6-quinolinyl]-1-piperidinecarboxamide]: 205 °C (dec.); for `Cc1ccc(C2CCN(C(=O)Nc3ccc4nc(CN5CCCC5)ccc4c3)CC2)cc1` [Example 41, 4-(4-Methylphenyl)-N-[2-(1-pyrrolidinylmethyl)-6-quinolinyl]-1-piperidinecarboxamide]: 214 to 216 °C; for `COc1ccc(-c2ccc(C(=O)Nc3ccc4nc(CN5CCCC5)ccc4c3)cn2)cc1` [Example 42, 6-(4-Methoxyphenyl)-N-[2-(1-pyrrolidinylmethyl)-6-quinolinyl]nicotinamide]: 210 °C (dec.).
The figure for `O=C(Nc1ccc2nc(CN3CCCC3)ccc2c1)c1ccc(-c2ccccc2)cc1` [Example 43, N-[2-(1-Pyrrolidinylmethyl)-6-quinolinyl][1,1′-biphenyl]-4-carboxamide] is 181 to 183 °C.
The same measure for `O=C(Nc1ccc2nc(CN3CCCC3)ccc2c1)c1ccc(-c2ccc(Cl)cc2)nc1` [Example 44, 6-(4-Chlorophenyl)-N-[2-(1-pyrrolidinylmethyl)-6-quinolinyl]nicotinamide]: 225 to 227 °C.
The compound `O=C(Nc1ccc2nc(CN3CCCC3)ccc2c1)c1ccc(-c2ccc(F)cc2)nc1` [Example 45, 6-(4-Fluorophenyl)-N-[2-(1-pyrrolidinylmethyl)-6-quinolinyl]nicotinamide] showed a melting point of 210 °C.
